Measurements published in paper PMC5557808 (Nature Communications, 2017).
Where a SMILES comes first, the peptide text is derived from it. [ ]: non-standard residue; d: D form. The star is where a group is joined. X1 = CC[N+](CC)(CC(=O)Nc1c(C)cccc1C)Cc1cccc(C(=O)*)c1; Aha = [N-]=[N+]=NCC[C@H](N)C(=O)O

Target: T1, Leucine aminopeptidase (AP) (Sus scrofa, UniProt P15145)
T1 construct: Leucine aminopeptidase (AP; Mw = 280 kDa) from porcine kidney; purchased Sigma-Aldrich Chemie, Schnelldorf, Germany; host or cells: porcine kidney (tissue-derived)
T1 sequence (P15145 1-963): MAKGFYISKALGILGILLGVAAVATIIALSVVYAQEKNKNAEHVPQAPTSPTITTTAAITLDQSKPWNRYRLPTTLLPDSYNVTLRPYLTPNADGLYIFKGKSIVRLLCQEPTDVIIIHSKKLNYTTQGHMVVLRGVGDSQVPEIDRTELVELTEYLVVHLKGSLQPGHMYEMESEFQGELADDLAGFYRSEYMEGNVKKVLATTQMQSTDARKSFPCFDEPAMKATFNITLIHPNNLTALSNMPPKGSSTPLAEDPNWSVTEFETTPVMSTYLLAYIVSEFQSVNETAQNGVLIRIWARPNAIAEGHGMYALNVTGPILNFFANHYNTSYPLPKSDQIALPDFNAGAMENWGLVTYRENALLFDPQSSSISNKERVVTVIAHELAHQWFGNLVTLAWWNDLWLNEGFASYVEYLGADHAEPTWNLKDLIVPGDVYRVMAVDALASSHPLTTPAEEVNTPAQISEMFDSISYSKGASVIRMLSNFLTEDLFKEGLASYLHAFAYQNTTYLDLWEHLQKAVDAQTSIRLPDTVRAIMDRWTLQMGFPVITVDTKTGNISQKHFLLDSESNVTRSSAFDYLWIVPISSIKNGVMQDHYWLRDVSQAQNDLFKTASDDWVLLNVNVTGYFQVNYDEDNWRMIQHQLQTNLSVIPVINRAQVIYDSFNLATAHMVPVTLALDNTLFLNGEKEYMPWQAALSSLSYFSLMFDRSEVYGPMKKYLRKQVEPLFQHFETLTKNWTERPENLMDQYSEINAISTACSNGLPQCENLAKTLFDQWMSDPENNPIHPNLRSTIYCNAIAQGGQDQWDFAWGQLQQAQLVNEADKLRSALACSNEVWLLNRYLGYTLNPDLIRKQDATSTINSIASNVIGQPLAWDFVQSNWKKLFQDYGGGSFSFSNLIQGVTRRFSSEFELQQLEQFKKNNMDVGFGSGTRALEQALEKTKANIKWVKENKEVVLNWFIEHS
Assay: Aminopeptidase (AP) incubation
Type: biochemical, porcine
Settings: AP 3.1 nM (0.87 µg/mL), 30 min, 37 °C, after 22 h with 1800 ng/mL MMP-8; LC-MS
Method: Leucine aminopeptidase (AP; Mw = 280 kDa) from porcine kidney dissolved in AP buffer (50 mM Tris-HCl, 1 mM CaCl2, and 150 mM NaCl at pH 7.0) was used. L-leucine-p-nitroanilide (0.125 mg/mL) was used as control substrate. For AP digestion, 1 mg of purified lyophilized peptide was diluted in 2 mL AP buffer resulting in a final concentration of 0.5 mg/mL substrate. To evaluate the impact of AP concentration on peptide cleavage, AP was added at concentrations of 0 (negative control), 0.87, 8.7, 39, and 78 µg/mL and the samples were incubated at 37 °C for 1 h. For analysis of the AP incubation time, an AP concentration of 0.87 µg/mL was used and analyzed after 10, 20 min and 1, 2, 3, and 6 h. To stop the enzyme activity, samples were kept at 95 °C for 15 min. Afterwards, HPLC analyses were performed (as described in the Supplementary Information) to analyze the relative decrease of the main peak as compared to the negative control. Further details are given in the Supplementary Methods.
MMP -9) in a concentration of 0.4 ng/µL (50 µL) were mixed with MMP -8 buffer (37 µL), detection enz yme (5 µL) and substrate (8µL; all fro m Q uic kZ yme® ). The acti vi t y was meas ur ed for 12 hours in inter vals of 10 minutes. […]
Aminopeptidase (AP) incubation
Leucine A minopeptidase (AP; M w = 280 kD a) from porcine kidney dissolved in AP buffer (50 mM Tris-HCl, 1 mM CaCl2 and 150 mM NaCl at pH 7.0) was used. L-leu cin e-p-nitroan ilide (0.125mg/ mL) was used as control substr at e. […] Fo r anal ysis of the impact of AP incubation time, the identical conditions were used (AP concentration of 0.87 µg / mL (and analyzed after 10, 20 minutes and 1, 2, 3 and 6 hours ). To stop the enzymatic activit y, sa mp les wer e kept at 95 °C for 15 minutes. A fterwards, H PLC analys es were p erformed (as descr ibed) to an al yze th e relative d ecr eas e of the ma i n pea k as co mp ared to the negative control (see […]
V(B)/(V(A)+V(B)) = 5 % to 90 % over 10 min, V(B)/(V(A)+V(B)) = 90 % for 5 min, V(B)/(V(A)+V(B)) = 90 % to 5 % over 3 min. […] UV detection was measured at 254 nm. […]

- effect of additional AP incubation after complete MMP-8 cleavage: no difference
Structure (SMILES): CC[C@H](C)[C@H](NC(=O)CNC(=O)[C@H](CCC(N)=O)NC(=O)[C@@H]1CCCN1C(=O)CNC(=O)c1cccc(C[N+](CC)(CC)CC(=O)Nc2c(C)cccc2C)c1)C(=O)N[C@@H](C)C(=O)NCC(=O)N[C@@H](CCC(N)=O)C(=O)N[C@@H](CCN=[N+]=[N-])C(=O)N[C@@H](CCC(N)=O)C(=O)O [ID #1c] (X1-GPQGIAGQ[Aha]Q-OH)
